The structures appear in SMILES notation.

Results on eleven compounds are retold here after patent US20100104980A1, “LITHOGRAPHIC PRINTING PLATE PRECURSOR” (Agfa Graphics NV, priority 2007, published 2010).

Series [1] in a line: Solubility in methylethylketone (MEK) measured at 20° C. It is filed as physicochemical. How it is done: The symmetric sensitizers SS-01 to SS-06 are given in Table 1 together with their solubility in methylethylketone (S (MEK)) measured at 20° C.
Series [2] is described as follows: Solubility in 1-methoxy-2-propanol (MOP) at 80° C., Lasentec FBRM technology. Conditions: solubility in 1-methoxy-2-propanol at 80° C.; from curve fitting of experimental data. Format: physicochemical. How it is done: (§1) In the present application the MetaStable Zone of solutions of a sensitizer and/or a mixture of sensitizers were measured with Lasentec® FBRM® technology, from Mettler Toledo. In this experimental set up, a Lasentec® Probe is used in an automated Labmax® 2 litre reactor, both from Mettler Toledo. In a typical investigation, the solution is cooled at a controlled rate (° C./min.) At a certain temperature, the probe detects nucleation and holds the solution at that temperature as crystallization proceeds. After completion of the crystallization, the solution is subjected to a controlled heating (° C./min) until the probe detects the temperature at which dissolution of the crystals is nearly completed. Again, the solution is kept at that temperature until all crystals are dissolved. Such cooling and heating cycli are performed for different concentrations of the solution. All actions, i.e. performing the cooling and heating cycli, dilution of the solution, storage and analysis of the data are performed automatically by the experimental set up used.
(§2) All investigations were performed on a sensitizer solution in 1-methoxy-2-propanol, since this typical coating solvent has a high boiling point (120° C.) and, as described above, will probably determine the crystallization behaviour at the end of the drying step of the photopolymerizable coating.
(§3) The obtained data for each investigated solution of a sensitizer or a mixture of sensitizers may be represented as in FIG. 1. In FIG. 1, curve S is the solubility curve and curve N the nucleation curve. These curves border three regions characterizing the solution as a function of concentration and temperature: the UnSaturated Zone (USZ), a stable zone wherein the solution is unsaturated (sensitizer is completely dissolved); an Unstable Zone (UZ), wherein crystallization occurs; and a MetaStable Zone (MSZ) wherein the solution is supersaturated but wherein no crystallization occurs.
(§4) The suspension was stirred at 350 rpm and heated until complete dissolution of all sensitizers. All following actions were automatically performed by the experimental set up used. The experimental set up constituted a Labmax® 2 liter automated lab reactor equipped with Lasentec® Probe and the Lasentec® D600 hardware, all distributed by Mettler Toledo. The Lasentec® FBRM® technology enables the detection of nucleation and dissolution temperatures of a solution. FBRM® stands for Focused Beam Reflectance Measurement. The Lasentec® probe measures the number and the average diameter of the particles in the suspension (the laser of the Lasentec® probe continuously scans, with a linear scan speed of 2 m/s, a region of the suspension; the laser light is reflected by the particles residing in the scanned region).
The 40 percent by weight solution was cooled at 0.2° C./minute. Upon detection of nucleation, i.e. when the Lasentec® FBRM® technology detects more than 800 particles with an average diameter of 1 to 20 μm, the so called ‘fines’ region, the mixture was kept at the attained temperature during 0.5 hour as crystallization proceeds. Upon completion of the crystallization, the mixture was heated at 0.2° C./minute. Upon detection of solubilization, i.e. when the Lasentec® FBRM® technology detects less than 30 particles with an average particle diameter of 20 to 50 μm, the so called ‘coarses’ region, the temperature was kept at the attained temperature during 0.5 hour until completion of the solubilization. […]

Series [3] in a line: MetaStable Zone Width (MSZW) in 1-methoxy-2-propanol at 80° C., Lasentec FBRM technology. Format: physicochemical. To be noted: cooling and heating rate 0.2° C./min, from curve fitting. How it is done:
as §1, §2, §3
The MetaStable Zone Width (MSZW), expressed in ° C., at a given temperature, is the width of the Metastable Zone (MSZ) starting at the curve S at that given temperature. Since the MSZW is dependent on the cooling and heating rates, these rates were identical for all solutions investigated, i.e. 0.2° C./min. If the cooling rate would be indefinitely slow, the nucleation curve would practically coincide with the solubility curve and no MetaStable Zone would be detected.
as §4
The 40 percent by weight solution was cooled at 0.2° C./minute. […]

As a reminder, the melting point is the temperature of the solid-liquid transition. On to `CCCCC(CC)COc1c(OC)cc(/C=C/c2ccc(/C=C/c3cc(OC)c(OC(C)CC)c(OC)c3)cc2)cc1OC` (stereo not drawn) [AS-01], for which the melting point is 81 °C.

`CCC(C)Oc1c(OC)cc(/C=C/c2ccc(/C=C/c3cc(OC)c(OC(CC)CC)c(OC)c3)cc2)cc1OC` (stereo not drawn) [AS-02] yielded a melting point of 155 °C.

The compound `CCC(C)Oc1c(OC)cc(/C=C/c2ccc(/C=C/c3cc(OC)c(OC4CCCCC4)c(OC)c3)cc2)cc1OC` (stereo not drawn) [AS-03] showed a melting point of 165 °C.

In the case of `CCC(C)Oc1c(OC)cc(/C=C/c2ccc(/C=C/c3cc(OC)c(OC4CCCC4)c(OC)c3)cc2)cc1OC` (stereo not drawn) [AS-04], the melting point is 153 °C.

`CCC(C)Oc1c(OC)cc(/C=C/c2ccc(/C=C/c3cc(OC)c(OCCO)c(OC)c3)cc2)cc1OC` (stereo not drawn) [AS-05] displayed a melting point of 137 °C.

As for `COc1cc(/C=C/c2ccc(/C=C/c3cc(OC)c(OC)c(OC)c3)cc2)cc(OC)c1OC` [SS-01], the “S (MEK)” value in series [1] turned out to be 0.89 wt %. In addition, the “S (MOP) 80° C.” value in series [2] was determined as 4.66 wt. %. For the same compound, in series [3], the “MSZW 80° C.” value was 4.5 °C.

In the case of `CCCOc1c(OC)cc(/C=C/c2ccc(/C=C/c3cc(OC)c(OCCC)c(OC)c3)cc2)cc1OC` [SS-02], the “S (MEK)” value in series [1] is on record as 4.75 wt %. In addition, in series [2], the “S (MOP) 80° C.” value amounted to 10.78 wt. %. Besides, the “MSZW 80° C.” value in series [3] was 4.5 °C.

As for `COc1cc(/C=C/c2ccc(/C=C/c3cc(OC)c(OC(C)C)c(OC)c3)cc2)cc(OC)c1OC(C)C` [SS-03], the “S (MEK)” value in series [1] worked out at 0.45 wt %. In addition, the “S (MOP) 80° C.” value in series [2] was found to be 7.31 wt. %. In series [3], the “MSZW 80° C.” value was 1.7 °C.

Regarding `CCC(C)Oc1c(OC)cc(/C=C/c2ccc(/C=C/c3cc(OC)c(OC(C)CC)c(OC)c3)cc2)cc1OC` (stereo not drawn) [SS-04], in series [1], the “S (MEK)” value is given as 8.71 wt %. Further, the “S (MOP) 80° C.” value in series [2] is given as 22.76 wt. %. Also, the “MSZW 80° C.” value in series [3] came to 1.6 °C.

Regarding `CCC(CC)Oc1c(OC)cc(/C=C/c2ccc(/C=C/c3cc(OC)c(OC(CC)CC)c(OC)c3)cc2)cc1OC` [SS-05], in series [1], the “S (MEK)” value is 9.64 wt %. In series [2], the “S (MOP) 80° C.” value was 6.14 wt. %. The “MSZW 80° C.” value in series [3] was 3.6 °C.

`CCCCC(CC)COc1c(OC)cc(/C=C/c2ccc(/C=C/c3cc(OC)c(OCC(CC)CCCC)c(OC)c3)cc2)cc1OC` (stereo not drawn) [SS-06]: the “S (MEK)” value in series [1] amounted to 23.21 wt %.
